Source: paper PMC11321638 (Advanced Science, 2024)
No end group written: not given here.

How the values were obtained:
[1] = target: T1, protease K (Parengyodontium album, UniProt P06873)
[2] = target: T1, protease K; assay: in vitro; conditions: isolated enzyme
[3] = system: BALB/c mice; conditions: mouse, in vivo, sc

T1 sequence (P06873 106-384 limits assumed): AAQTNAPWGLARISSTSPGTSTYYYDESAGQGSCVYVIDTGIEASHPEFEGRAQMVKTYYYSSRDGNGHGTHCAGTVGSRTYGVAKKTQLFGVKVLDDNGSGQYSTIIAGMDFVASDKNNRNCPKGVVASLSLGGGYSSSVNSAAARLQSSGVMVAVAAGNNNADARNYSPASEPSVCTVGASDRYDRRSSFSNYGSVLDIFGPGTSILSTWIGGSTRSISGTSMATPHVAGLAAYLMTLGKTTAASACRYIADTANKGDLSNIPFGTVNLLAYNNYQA

SEFMRNALEEMLRRA-NH2 [RSIpep]
t1/2 with protease K [1]: less than 1 h
half-life [2]: 37.2 ± 1.8 min
pathological section analysis of heart, liver, spleen, lung, kidney [3]: no discernible pathological alterations
